Measured values: patent publication US7094786B2, “Method of treating nausea, vomiting, retching or any combination thereof” (Dynogen Pharmaceuticals, Inc., priority 2003, dated 2006)

Tests used:
5-HT3 receptor = target: T1, 5-HT3 receptor (Mus musculus, UniProt P23979); details: radioligand binding; read-out: Ki, affinity for the 5-HT3 receptor; cited from earlier work
T1 construct: host or cells: N1E-115 mouse neuroblastoma cells
T1 sequence (P23979 24-489): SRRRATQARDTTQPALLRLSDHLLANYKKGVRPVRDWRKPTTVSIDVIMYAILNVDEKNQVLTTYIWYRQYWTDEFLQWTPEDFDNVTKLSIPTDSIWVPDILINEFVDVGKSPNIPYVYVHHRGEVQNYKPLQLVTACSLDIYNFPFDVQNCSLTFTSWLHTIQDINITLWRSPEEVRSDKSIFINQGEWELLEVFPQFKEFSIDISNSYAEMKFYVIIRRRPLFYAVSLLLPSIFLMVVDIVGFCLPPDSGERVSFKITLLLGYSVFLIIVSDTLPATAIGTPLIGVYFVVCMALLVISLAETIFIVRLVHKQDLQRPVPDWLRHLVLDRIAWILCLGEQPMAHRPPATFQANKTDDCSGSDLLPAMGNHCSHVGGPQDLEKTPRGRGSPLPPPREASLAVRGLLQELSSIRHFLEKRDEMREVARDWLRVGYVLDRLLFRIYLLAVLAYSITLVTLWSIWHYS

muscarinic receptors = details: cited from earlier work
[1] = system: α1, α2, β1, β2, 5-HT1, 5-HT1A, 5-HT1c, 5-HT2, 5-HT4, 5-HT6, 5-HT7, D1, D2, Muscarinic, M1, M2, M3, Nicotonic, H1, H2, GABA-A, GABA-B, BZP, Opiate, CRF and …; details: all receptors tested other than 5-HT3; read-out: IC50, radioligand binding to additional receptors; cited from earlier work
[2] = system: Monoamine Oxidase-A (MAO-A); details: cited from earlier work
[3] = system: cisplatin-induced retching and vomiting; experiment: Cisplatin-induced emesis in the ferret; type: in vivo, ferret (Mustela putariofuro); details: for Latency: first emetic event; for Effect on latency of the first emetic response (in words): across doses tested i.p.; for Effect on number of cisplatin-induced emetic events (in words): across doses tested i.p. (ondansetron 5, 10 mg/kg; MCI-225 1, 10, 30 mg/kg); for Retches (360 min) / Vomits (360 min) / Total Events: male ferrets; for Total Events: 360 min
Protocol: The ability of MCI-225 to reduce retching and vomiting in an accepted model of cytotoxin-induced emesis in the ferret was assessed. Specifically, the experiments described herein investigated the effect of MCI-225 on retching and vomiting induced by cisplatin. Ondansetron was used as a positive control in the model, in view of its known antiemetic activity. Adult male ferrets (Mustela putariofuro) weighing 1200–1880 g were purchased from Triple F Farms (Sayre, Pa.) and housed in individual cages at standardized conditions (12:12 h light/dark cycle and 21–23° C.). Prior to the experiments, the ferrets were allowed a 7–10 day acclimatization period to the animal facility. The ferrets were fed a carnivore diet with free access to food and water throughout the course of the study. The use of the ferret model of emesis and the drug treatment were preapproved in accordance with facility standards. A cisplatin solution was prepared by adding preheated (70° C.) saline to cisplatin powder (Sigma-Aldrich Co.) and stirring or sonicating at 40° C. until dissolved. Following administration of the cisplatin and either MCI-225, ondansetron or vehicle alone, the occurrence of retching and vomiting was monitored for a period of 6 hours. Retching was defined as the number of forceful rhythmic contractions of the abdomen occurring with the animal in characteristic posture, but not resulting in the expulsion of upper gastrointestinal tract contents (Watson et al., British Journal of Pharmacology, 115(1): 84–94 (1994)). Vomiting was defined as the forceful oral expulsion of upper gastrointestinal contents. The latency of the retching or vomiting response and the number of episodes were recorded for each animal and summarized for each experimental group (Wright et al., Infect. Immun., 68(4): 2386–9 (2000)). Following one hour of acclimation to the observation cage, ferrets received an intraperitoneal (i.p.) injection of cisplatin (5 mg/kg in 5 mL) followed in about 2 minutes by i.p. injection of a single dose of MCI-225 or ondansetron (Rudd and Naylor, Eur. J. Pharmacol., 322: 79–82 (1997)). Dose-response effects of MCI-225 dosed at 1, 10 and 30 mg/kg i.p. in a 0.5 ml/kg solution or ondansetron dosed at 5 and 10 mg/kg i.p. in a 0.5 mL/kg solution were studied. Each animal received a single-dose drug treatment. In addition, three animals received an initial dose (30 mg/kg i.p.) and a second MCI-225 injection (30 mg/kg i.p.) 180 minutes following the initial dose. Control animals were treated with cisplatin followed by vehicle alone (propanediol dosed in a 0.5 mL/kg solution). All groups were randomized.

[4] = system: Monoamine Oxidase-B (MAO-B); details: cited from earlier work
[5] = 10 mg/kg i.p. single dose after cisplatin 5 mg/kg i.p.
[6] = 5 mg/kg i.p. single dose after cisplatin 5 mg/kg i.p.

Row | SMILES | Ki (5-HT3 receptor) | Anticholinergic activity (muscarinic receptors) | IC50 [1] | Inhibition of MAO-A activity [2] | Latency ([3]; 1 mg/kg i.p. single dose after cisplatin 5 mg/kg i.p.) | Latency [3, 5] | Latency ([3]; 30 mg/kg b.i.d i.p. (two doses, 180-min interval) after cisplatin 5 mg/kg i.p.) | Latency ([3]; 30 mg/kg i.p. single dose after cisplatin 5 mg/kg i.p.) | Effect on latency of the first emetic response (in words) [3] | Effect on number of cisplatin-induced emetic events (in words) [3] | Overall antiemetic efficacy (conclusion) ([3]; similar dose range as ondansetron) | Emetic response (in words) ([3]; two doses of 30 mg/kg, b.i.d at a 180-min interval) | Inhibition of MAO-B activity [4] | Latency [3, 6] | Retches (360 min) [3, 6] | Vomits (360 min) [3, 6] | Total Events [3, 6] | Retches (360 min) [3, 5] | Vomits (360 min) [3, 5] | Total Events [3, 5]
1 | Cc1cc2c(-c3ccccc3F)nc(N3CCNCC3)nc2s1 [MCI-225, 4-(2-fluorophenyl)-6-methyl-2-(1-piperazinyl)thieno[2,3-d]pyrimidine] | < 100 nM | substantially no anticholinergic activity | > 1000 nM | did not inhibit | 186 ± 35 min | 192 ± 57 min | 360 ± 0 min | 287 ± 38 min | increase in the latency of the response | dose-dependent reduction in the retches and vomits | effective at reducing retching and vomiting | eliminated | did not inhibit |  |  |  |  |  |  | 
2 | Cc1nccn1CC1CCc2c(c3ccccc3n2C)C1=O (centres unmarked) [Ondansetron, ondansetron] |  |  |  |  |  | 313 ± 32 min |  |  | increase in the latency of the first emetic response | dose-dependently reduced the number of emetic events |  |  |  | 288 ± 4 min | 11.2 ± 7.0 | 0.3 ± 0.2 | 11.5 ± 7.2 | 2.4 ± 1.6 | 0.0 ± 0.0 | 2.4 ± 1.6
